Source: ChEMBL document CHEMBL2150906, “Synthesis of a new [6]-gingerol analogue and its protective effect with respect to the development of metabolic syndrome in mice fed a high-fat diet” (J Med Chem, 2011)
The source made the active and inactive calls. The rule behind the calls is not given here.

Experiments:
Mus musculus [1] = test: Antiobesity activity in HFD-induced obese Jcl:MCH mouse model assessed as decrease in body weight administered as supplement for 86 days (reference value: 51.2 +/- 2.7 g); assay type: functional
Mus musculus [2] = test: Antiobesity activity in HFD-induced obese Jcl:MCH mouse model assessed as decrease in subcutaneous fat administered as supplement for 86 days measured after 90 days by MRI (reference value: 20.8 +/- 1.7 %); assay type: functional; design: scale not given: the % may be the effect or the level left
Mus musculus [3] = test: Antiobesity activity in HFD-induced obese Jcl:MCH mouse model assessed as decrease in visceral fat administered as supplement for 86 days measured after 90 days by MRI relative to control; assay type: functional
Mus musculus [4] = test: Hypoglycemic activity in HFD-induced obese Jcl:MCH mouse model assessed as decrease in post prandial blood glucose levels administered as supplement for 86 days measured after 92 to 94 days by OGTT relative to HFD-fed control; assay type: functional, organism-based
Mus musculus [5] = test: Reduction in serum insulin levels in HFD-induced obese Jcl:MCH mouse model administered as supplement for 86 days measured after 100 days by ELISA relative to HFD-fed control; assay type: functional, organism-based
Mus musculus [6] = test: Reduction in serum leptin levels in HFD-induced obese Jcl:MCH mouse model administered as supplement for 86 days measured after 100 days by ELISA relative to HFD-fed control; assay type: functional, organism-based
Mus musculus [7] = test: Reduction in leptin mRNA levels in HFD-induced obese Jcl:MCH mouse model adipose tissue administered as supplement for 86 days measured after 100 days by RT-PCR relative to HFD-fed control; assay type: functional, organism-based
Mus musculus [8] = test: Reduction in TNFalpha mRNA levels in HFD-induced obese Jcl:MCH mouse model adipose tissue administered as supplement for 86 days measured after 100 days by RT-PCR relative to HFD-fed control; assay type: functional, organism-based
Mus musculus [9] = test: Reduction in SREBP1c mRNA levels in HFD-induced obese Jcl:MCH mouse model administered as supplement for 86 days measured after 100 days by RT-PCR relative to HFD-fed control; assay type: functional, organism-based
Mus musculus [10] = test: Reduction in ACC mRNA levels in HFD-induced obese Jcl:MCH mouse model liver administered as supplement for 86 days measured after 100 days by RT-PCR relative to HFD-fed control; assay type: functional, organism-based
Mus musculus [11] = test: Reduction in FAS mRNA levels in HFD-induced obese Jcl:MCH mouse model liver administered as supplement for 86 days measured after 100 days by RT-PCR relative to HFD-fed control; assay type: functional, organism-based
3T3-L1 [12] = test: Increase in adiponectin mRNA levels in TNFalpha-induced mouse 3T3L1 cells pretreated at 25 to 50 uM before TNF-alpha challenge relative to control; assay type: functional, cell-based
Mus musculus [13] = test: Hypoglycemic activity in HFD-induced obese Jcl:MCH mouse model assessed as decrease in fasting blood glucose levels administered as supplement for 86 days measured after 92 to 94 days by OGTT relative to HFD-fed control; assay type: functional, organism-based
3T3-L1 [14] = test: Increase in adiponectin mRNA levels in TNFalpha-induced mouse 3T3L1 cells pretreated at 10 uM before TNF-alpha challenge relative to control; assay type: functional, cell-based
Mus musculus [15] = test: Antiobesity activity in regular chow-fed Jcl:MCH mouse assessed as decrease in body weight administered as supplement for 86 days (reference value: 45.0 +/- 0.8 g); assay type: functional
Mus musculus [16] = test: Antiobesity activity in regular chow-fed Jcl:MCH mouse assessed as decrease in subcutaneous fat administered as supplement for 86 days measured after 90 days by MRI (reference value: 5.4 +/- 1.7%); assay type: functional; design: scale not given: the % may be the effect or the level left
3T3-L1 [17] = test: Increase in adiponectin mRNA levels in TNFalpha-induced mouse 3T3L1 cells pretreated at 50 uM before TNF-alpha challenge relative to control; assay type: functional, cell-based
[18] = Stability of the compound in simulated gastric fluid at pH 1.0 assessed as formation of shogaols; assay type: physicochemical; conditions: simulated gi fluid
[19] = Stability of the compound in 6 N HCl assessed as formation of shogaols; assay type: physicochemical; conditions: buffer

CCCCCC(O)CC(=O)CCc1ccc(O)c(OC)c1 (configuration not stated)
Activity (Mus musculus [1]): 47.1 g | Activity (Mus musculus [2]): 6.7% | Activity (Mus musculus [3]): 3.5 g | Activity (Mus musculus [4]): Active | Activity (Mus musculus [5]): Active | Activity (Mus musculus [6]): Active | Activity (Mus musculus [7]): Active | Activity (Mus musculus [8]): Active | Activity (Mus musculus [9]): Active | Activity (Mus musculus [10]): Active | Activity (Mus musculus [11]): Active | Activity (3T3-L1 [12]): Active | Activity (Mus musculus [13]): Active

CN(CCOc1ccc(CC2SC(=O)NC2=O)cc1)c1ccccn1 (configuration not stated)
Activity (3T3-L1 [14]): Active

CCCCCC(O)CC(=O)NCc1ccc(O)c(OC)c1 (configuration not stated)
Activity (Mus musculus [15]): 41.6 g | Activity (Mus musculus [1]): 41.6 g | Activity (Mus musculus [16]): 6.7% | Activity (Mus musculus [2]): 10.9% | Activity (Mus musculus [3]): 1.84 g | Activity (Mus musculus [4]): Active | Activity (Mus musculus [5]): Active | Activity (Mus musculus [6]): Active | Activity (Mus musculus [7]): Active | Activity (Mus musculus [8]): Active | Activity (Mus musculus [9]): Active | Activity (Mus musculus [10]): Active | Activity (Mus musculus [11]): Active | Activity (3T3-L1 [17]): Active | Activity (3T3-L1 [12]): Active | Stability [18]: Stable | Stability [19]: Stable | Activity (Mus musculus [13]): Active
